The conditions of data set [1]: cited from earlier work.
The next data set deals with haemorrhoidal crises. Particulars: 25 patients 1 500 mg per day calcium dobesilate; 26 patients 3000 mg per day flavonoid fraction of diosmine; cited from earlier work.
For data set [2], the system named is patients with chronic venous insufficiency. Here is the method: A randomized, comparative clinical study was carried out wherein 150 patients with chronic venous insufficiency were included.
All patients were firstly treated with conventional therapy, combining compression with pharmacological treatment.
A full clinical history with physical examination was prepared for the patients, being assessed with Echo Doppler and CEAP classification, see Table 1.

The mark [3] stands for this setting: Final symptomatology data after two months of treatment, n=50 per group, initial 100%.

The values that follow come from patent EP2208498B1, “PHARMACEUTICAL COMPOSITION COMBINING VARIOUS VENOTONIC AND VASOPROTECTIVE AGENTS FOR THE TREATMENT OF CHRONIC VENOUS INSUFFICIENCY” (priority 2007, dated 2009).

SMILES strings stand for the structures. Bounds are passed on as bounds.

For `O=S(=O)(O)c1cc(O)ccc1O` [calcium dobesilate, Calcium dobesilate], in data set [1] (after oral administration), the plasma peak is 8 µg/mL and the “time of plasma peak” value is “around 6 hours”. In addition, the Plasma half-life result in data set [1] (in vivo) is listed as “about 5 hours”. Moreover, the “administered dose removed in feces” value in data set [1] (remaining dose) is 50%. The “administered dose removed in urine” value in data set [1] (within the first 24 hours) was 50%. In the data set with haemorrhoidal crises, the “improvement in haemorrhoidal crises (in words)” value was “significant improvement”. This compound returned an Itch in data set [2] (Final symptomatology data after two months of treatment, n=50 per group, initial 80-88%) of 0. In data set [2] (setting [3]), this compound returned a Cramps of 0, a Heaviness of 0 and a Limb pain of 0. The compound further showed a Doppler in data set [2] (Final symptomatology data after two months of treatment, n=50 per group, initial >9) of less than 9. The “reported side effects such as: head ache and tiredness sensation” value in data set [2] (human, in vivo) was 14 patients.
